In patent publication US20180008672A1, “ANTI-ACTIVIN A ANTIBODIES AND METHODS OF USE THEREOF FOR TREATING PULMONARY ARTERIAL HYPERTENSION” (Regeneron Pharmaceuticals, Inc., priority 2016, published 2018):
Marks after values point to notes of the source that are not given here.

Key:
[1] = system: long-term rat monocrotaline in vivo model; assay: long-term rat monocrotaline model, survival; set-up: species or system rat (Sprague Dawley); settings: monocrotaline 40 mg/kg SC day 0; therapy from two weeks post-monocrotaline for 5 weeks; antibodies 40 mg/kg SC 2x/wk, macitentan 30 mg/kg PO daily; n=10
Procedure: To evaluate the survival benefit of anti-Activin A antibody in a pulmonary arterial hypertension model, a long-term rat monocrotaline in vivo model was used.
Six-to-seven week old Sprague Dawley rats were used. Rats were separated into treatment groups such that body weights were similar among different groups. Rats were subcutaneously administered either 40 mg/kg of monocrotaline or 5 mL/kg of saline at day 0. At 14 days post-injection, saline-injected rats were subcutaneously treated with saline at 5 mL/kg, twice a week for 5 weeks, unless they died prematurely.
The monocrotaline-injected rats were separated into 4 groups. One group (n=10) was orally administered macitentan at 30 mg/kg daily. A second group (n=10) was subcutaneously administered saline at 5 mL/kg twice a week. A third group (n=10) was subcutaneously treated with either an isotype control antibody, H4H6334P. A fourth group (n=10) was subcutaneously treated with the anti-Activin A antibody, H4H10446P2, at 40 mg/kg twice a week. These monocrotaline-treated rats were started on therapy at two weeks post-monocrotaline and continued for 5 weeks, unless the animal died prematurely.
Animals were monitored twice a day for signs of morbidity or mortality. Based on literature searches, 5-8 weeks after monocrotaline injection is typically a time where morbidity and mortality are likely. […]

[2] = system: rat model of pulmonary hypertension induced by monocrotaline; assay: rat model of pulmonary hypertension induced by monocrotaline; type: in vivo, rat (Sprague Dawley)
Procedure: To further evaluate the effect of anti-Activin A antibodies in pulmonary arterial hypertension, a rat model of pulmonary hypertension induced by monocrotaline was used.
Six to seven week old Sprague Dawley rats were used. Rats were separated into treatment groups such that body weights were similar among different groups. Rats were subcutaneously administered either 40 mg/kg of monocrotaline or 5 mL/kg of saline at day 0. At 14 days post injection, saline-injected rats were orally dosed with PEG 400 (at 50:50 v/v, Affymetrix Inc., #19957) at 5 mL/kg daily for two weeks, and monocrotaline-injected rats were separated into 5 groups with a group (n=9) orally dosed with PEG 400 at 5 mL/kg daily for two weeks, another group (n=12) orally administered macintentan at 30 mg/kg daily for two weeks, and three groups that were both orally dosed with PEG 400 at 5 mL/kg daily for two weeks and subcutaneously treated with either anti-Activin A antibodies, H4H10430P (n=9), H4H10446P2 (n=11), or an isotype control antibody (n=10) at 40 mg/kg twice a week for two weeks.
At day 27, pulmonary artery size and right ventricular function and dimensions of the rats were assessed using a high frequency ultrasound system (Vevo 2100, VisualSonics). For the assessment, rats were anesthetized (with 1.5% isoflurane at a rate of 1.0 cc/mL of medical grade air) and their temperature was monitored with a rectal temperature probe and held at approximately 37° C. with a heated platform (Vevo 2100, Visualsonics) and a warming lamp. Both brightness-mode (B-mode) and motion-mode (M-mode) imaging were used. B-mode imaging of the rat heart in cross-section was used to determine pulmonary artery cross-sectional area (PA CSA) at the level of the pulmonary valve. […] was used to determine the pulsed wave velocity time integral (VTI), which is derived from the area under the curve of representative Doppler tracings of blood flow through the pulmonary artery. Right ventricular stroke volume (RV SV) was calculated from the product of PA CSA and VTI. Right ventricular cardiac output (RV CO) was calculated from the product of SV and heart rate (HR). M-mode imaging was used to determine right ventricular free wall (RVFW) thickness during diastole and systole. Animals were returned to their home cages before right ventricular pressure assessment.
Right ventricular pressure was subsequently assessed for all treatment groups. Rats were anesthetized with isoflurane and were kept at approximately 37° C. using a platform (Heated Hard Pad 1, Braintree Scientific) and circulating heated water pump (T/Pump Classic, Gaymar Industries). The neck area for each rat was prepared for surgery by depilating over the right common carotid artery and right jugular vein. An incision was made and the right jugular vein was isolated with care as to not damage the carotid artery and/or the Vagus nerve. A piece of 5-0 silk suture was placed under the isolated jugular vein to allow for retraction of the vessel cranially, then a 26-guage needle was used to introduce a hole into the jugular vein. A pressure catheter (Micro-tip catheter transducer SPR-1000, Millar Instruments, Inc.) was inserted into the opening of the jugular vein and advanced past the right atrium into the right ventricle. The catheter was connected to pressure/volume instrument (MPVS-300, Millar Instruments, Inc.) that measured heart rate as well as both diastolic and systolic right ventricular pressures. These parameters were digitally acquired using a data acquisition system (PowerLab 4/35, ADlnstruments). LabChart Pro 7.0 software (ADlnstruments) was used to analyze right ventricular pressures. Readings were quantified from a 60 second interval of the pressure tracing (following a 2 minute period of recording to allow for pressure stabilization). The parameters analyzed were RV diastolic and systolic pressures, heart rate and ventricular contractile function. […]

[3] = monocrotaline 40 mg/kg SC day 0, antibodies 40 mg/kg SC 2x/wk, macitentan 30 mg/kg PO daily from day 14 for two weeks, ultrasound day 27

SMILES: CCCNS(=O)(=O)Nc1ncnc(OCCOc2ncc(Br)cn2)c1-c1ccc(Br)cc1 [Macitentan]
- mortality (animals that died during the study) [1]: Forty
- PA CSA (Ave ± SEM) [2, 3]: 9.458 ± 0.476** mm^2
- Right Ventricular cardiac output (Ave ± SEM) [2, 3]: 127.8 ± 11.7 mL/min
- Stroke Volume (Ave ± SEM), right ventricular [2, 3]: 371.6 ± 27.9 µL
- effect on right ventricular cardiac output (in words) ([2]; monocrotaline exposed rats): partially restored cardiac output
- effect on PA CSA (in words) ([2]; monocrotaline-injected rats, FIG. 3A): restored PA CSA to that of saline-injected rats
- effect on right ventricular stroke volume (in words) ([2]; monocrotaline-injected rats, FIG. 3B): partially restored stroke volume
- effect on right ventricular hypertrophy, Fulton Index RV/(LV+S) (in words) ([2]; monocrotaline-injected rats, FIG. 3C): did not lessen right ventricular hypertrophy
- effect on elevation of right ventricular pressures (in words) ([2]; monocrotaline-injected rats, catheter-based assessment, FIG. 3D): none of the treatment groups (Macitentan or anti-Activin A groups) showed attenuation in the elevation of right ventricular pressures
